The source of these data is PMC7481761 (Virologica Sinica, 2020).

The structures appear in SMILES notation. Like-named read-outs stand apart in the source and are kept apart here. Marks after values point to notes of the source that are not given here.

Data set [1] concerns Huh7 cells. The note with it: CCK-8 assay.
Data set [2] relates to SARS-CoV-2. The format is cell-based.
The subject of data set [3] is SARS-CoV-2. The data set can be described thus: microbe, parasite or virus in culture. The format is cell-based. The note with it: for IC50: Severe acute respiratory syndrome coronavirus 2, Huh-7, 48 h.
The test system of data set [4] is SARS-CoV-2. The data set can be described thus: Time-of-drug-addition assay in Vero E6 cells. The format is cell-based.
The test system of data set [5] is SARS-CoV-2. In kind it is cell-based. The source holds these as a separate data set.
Data set [6] relates to Vero E6 cells. To be noted: read-out: CC50 (half cytotoxic concentration).
The nature of data set [7]: in vitro. The note with it: African green monkey.
A short description of data set [8]: in vitro. To be noted: human.
The subject of data set [9] is SARS-CoV-2. The format is cell-based. The note with it: Vero E6 cells, CC50/IC50.
Data set [10] can be described thus: In vivo plasma exposure in humans. More on the design: species or system human.
The conditions of data set [11]: plasma; ref Cvetkovic and Goa (2003); cited from earlier work.

The term IC50 denotes the concentration at which inhibition is half-maximal.

For `C#CC[C@@H](C(=O)N[C@H](/C=C/C(=O)OCC)C[C@@H]1CCNC1=O)n1cccc(NC(=O)c2cc(C)on2)c1=O` [AG7404], the CC50 in data set [1] and in [6] was more than 400 µM throughout. Also, the “NP expression by IFA” value in [2] was “confirmed by IFA”. In addition, the IC50 in data set [3] was determined as 92.5 µM. In addition, the “stage of infection at which the compound acts (time-of-drug-addition)” value (shortened to “stage of infection”) in data set [4] was “inhibit SARS-CoV-2 at the stages post virus infection”. The “inhibitory effect by IFA” value in [5] was “confirmed by IFA”.

As for `CCOC(=O)/C=C/[C@H](C[C@@H]1CCNC1=O)NC(=O)[C@@H](CC(=O)[C@@H](NC(=O)c1cc(C)on1)C(C)C)Cc1ccc(F)cc1` [Rupintrivir, rupintrivir], the CC50 in data set [7] and in data set [8] was more than 100 µM throughout. In addition, the “selectivity index (SI)” value in [9] is on record as more than 2.93; in data set [3] (Huh7 cells, CC50/IC50) it was more than 3.94. Also, in data set [2], the “NP expression by IFA” value is “confirmed by IFA”. This compound returned an IC50 in [3] of 25.4 µM. Also, in [4], the “stage of infection” value was “inhibit SARS-CoV-2 at the stages post virus infection”. The “inhibitory effect by IFA” value in data set [5] is “confirmed by IFA”.

On to `Cc1cccc(C)c1OCC(=O)N[C@@H](Cc1ccccc1)[C@@H](O)C[C@H](Cc1ccccc1)NC(=O)[C@H](C(C)C)N1CCCNC1=O` [Lopinavir, lopinavir], for which the CC50 in data set [1] came to 64.4 µM; in data set [7] it was 80.8 µM. Besides, in data set [2], the “NP expression by IFA” value is “decreased NP expression levels”. This compound also showed an IC50 in data set [3] of 7.79 µM. Besides, the “stage of infection” value in data set [4] is given as “inhibited SARS-CoV-2 infection after virus entry, but not during virus entry”. Further, the “inhibitory effect by IFA” value in data set [5] was “IFA confirmed the inhibitory effect”.

With `CC(C)c1nc(CN(C)C(=O)N[C@H](C(=O)N[C@@H](Cc2ccccc2)C[C@H](O)[C@H](Cc2ccccc2)NC(=O)OCc2cncs2)C(C)C)cs1` [Ritonavir, ritonavir], the “In vivo concentration Unbound Cmin” value in data set [10] worked out at 0.0006 µmol/L. Also, the “In vivo concentration Cmin” value in data set [11] is listed as 0.038^e µmol/L. The “NP expression by IFA” value in [2] is on record as “decreased NP expression levels”. Besides, the IC50 in data set [3] stood at 11.7 µM. Moreover, the “stage of infection” value in data set [4] is reported as “inhibited SARS-CoV-2 infection after virus entry, but not during virus entry”. Moreover, in data set [5], the “inhibitory effect by IFA” value is on record as “IFA confirmed the inhibitory effect”.
